Reference: ChEMBL document CHEMBL1201862, “PubChem BioAssay data set” (2004)
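All cell lines were grown in 96-well plates and treated with compound for 48 hours. GI50 = concentration required for 50% inhibition of growth.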 Calls of active or inactive are those of the source. Cut-off read from the data, not from the text of the source: active = GI50 up to about 1.1 µM and inactive = higher.

Experiments:
Test in all cases: inhibition of tumour cell growth, NCI panel, 48 h
SF-268 = system: SF-268
OVCAR-3 = system: OVCAR-3
NCI-H460 = system: NCI-H460
SK-MEL-28 = system: SK-MEL-28
ACHN = system: ACHN
Malme-3M = system: Malme-3M
T47D = system: T47D
IGROV-1 = system: IGROV-1
HCT-116 = system: HCT-116
MDA-N = system: MDA-N
M14 = system: M14
OVCAR-8 = system: OVCAR-8
OVCAR-5 = system: OVCAR-5
UACC-257 = system: UACC-257
KM12 = system: KM12
K562 = system: K562
HOP-62 = system: HOP-62
UACC-62 = system: UACC-62
HOP-92 = system: HOP-92
SK-MEL-5 = system: SK-MEL-5

Measured: GI50

Sc1nn2c(COc3cccc(OCc4nnc5sc(S)nn45)c3)nnc2s1
inactive: SF-268 > 100 µM | OVCAR-3 > 100 µM | NCI-H460 31.8 µM | SK-MEL-28 > 100 µM | ACHN > 100 µM | Malme-3M > 100 µM | T47D > 100 µM | IGROV-1 > 100 µM | HCT-116 > 100 µM | MDA-N > 100 µM | M14 > 100 µM | OVCAR-8 > 100 µM | OVCAR-5 > 100 µM | UACC-257 > 100 µM | KM12 > 100 µM | K562 7.89 µM | HOP-62 > 100 µM | UACC-62 > 100 µM | HOP-92 > 100 µM

COC(=O)C(C)(NC(=O)C(CC(=O)OC(C)(C)C)NC(=O)OC(C)(C)C)c1ccccc1 (stereo unspecified)
inactive: SF-268 7.19 µM | OVCAR-3 49.8 µM | NCI-H460 85.7 µM | SK-MEL-28 > 100 µM | ACHN > 100 µM | Malme-3M 40 µM | T47D 35.4 µM | IGROV-1 > 100 µM | HCT-116 > 100 µM | MDA-N > 100 µM | M14 > 100 µM | OVCAR-8 > 100 µM | OVCAR-5 > 100 µM | UACC-257 > 100 µM | SK-MEL-5 68.4 µM | KM12 > 100 µM | K562 > 100 µM | HOP-62 > 100 µM | UACC-62 > 100 µM | HOP-92 63 µM

c1ccc2c(c1)nnn2C1CCCCO1 (stereo unspecified)
inactive: SF-268 > 100 µM | OVCAR-3 > 100 µM | NCI-H460 > 100 µM | SK-MEL-28 > 100 µM | ACHN > 100 µM | Malme-3M > 100 µM | T47D > 100 µM | IGROV-1 > 100 µM | HCT-116 > 100 µM | MDA-N > 100 µM | M14 > 100 µM | OVCAR-8 > 100 µM | OVCAR-5 > 100 µM | UACC-257 > 100 µM | SK-MEL-5 > 100 µM | KM12 > 100 µM | K562 > 100 µM | HOP-62 > 100 µM | UACC-62 > 100 µM | HOP-92 > 100 µM

COc1ccc(C(NCCNC(c2ccc(OC)c(OC)c2)c2cc3c(cc2O)OCO3)c2cc3c(cc2O)OCO3)cc1OC (stereo unspecified)
inactive: SF-268 1.63 µM | OVCAR-3 2.65 µM | NCI-H460 4.35 µM | SK-MEL-28 1.62 µM | ACHN 2.64 µM | Malme-3M 4.5 µM | T47D 3.37 µM | IGROV-1 2.72 µM | HCT-116 2.26 µM | MDA-N 1.64 µM | M14 2.92 µM | OVCAR-8 1.89 µM | OVCAR-5 4.57 µM | UACC-257 4.26 µM | SK-MEL-5 7.05 µM | KM12 2.67 µM | K562 1.49 µM | HOP-62 8.18 µM | UACC-62 2.53 µM | HOP-92 6.71 µM

Clc1ccc(/C=N/c2ccc(Oc3ccc(Cl)cc3)c(Cl)c2)cc1
inactive: SF-268 17.5 µM | OVCAR-3 16.9 µM | NCI-H460 21.5 µM | SK-MEL-28 23.6 µM | ACHN 34.1 µM | Malme-3M 20.2 µM | T47D 19.5 µM | IGROV-1 38.5 µM | HCT-116 17.9 µM | MDA-N 19.1 µM | M14 21.1 µM | OVCAR-8 29.4 µM | OVCAR-5 > 100 µM | UACC-257 30.9 µM | SK-MEL-5 22.3 µM | KM12 24.8 µM | HOP-62 19.4 µM | UACC-62 19.8 µM | HOP-92 19.4 µM

CN(CCNC(=O)c1nn(-c2ccccc2)c2c1ccc1ccccc12)CCNC(=O)c1nn(-c2ccccc2)c2c1ccc1ccccc12
inactive: SF-268 2.38 µM | OVCAR-3 1.71 µM | NCI-H460 1.41 µM | SK-MEL-28 1.7 µM | ACHN 2.11 µM | Malme-3M 2.23 µM | T47D 2.41 µM | IGROV-1 1.98 µM | HCT-116 1.53 µM | MDA-N 1.75 µM | M14 1.78 µM | OVCAR-8 1.79 µM | OVCAR-5 4.49 µM | UACC-257 1.71 µM | SK-MEL-5 1.64 µM | KM12 2.37 µM | HOP-62 1.43 µM | UACC-62 1.77 µM | HOP-92 1.73 µM

CS(=N)(=O)CCC(N)P(=O)(O)O (stereo unspecified)
inactive: SF-268 > 100 µM | OVCAR-3 > 100 µM | NCI-H460 > 100 µM | SK-MEL-28 > 100 µM | ACHN > 100 µM | Malme-3M > 100 µM | T47D > 100 µM | IGROV-1 > 100 µM | HCT-116 > 100 µM | MDA-N > 100 µM | M14 > 100 µM | OVCAR-8 > 100 µM | OVCAR-5 > 100 µM | UACC-257 > 100 µM | SK-MEL-5 > 100 µM | KM12 > 100 µM | K562 > 100 µM | HOP-62 > 100 µM | UACC-62 > 100 µM | HOP-92 > 100 µM

Nc1ncnc2c1ncn2C1CCC(COS(N)(=O)=O)C1 (stereo unspecified)
inactive: SF-268 > 100 µM | OVCAR-3 80.7 µM | NCI-H460 > 100 µM | SK-MEL-28 > 100 µM | ACHN > 100 µM | Malme-3M > 100 µM | T47D 93.5 µM | IGROV-1 > 100 µM | HCT-116 57.5 µM | MDA-N > 100 µM | M14 > 100 µM | OVCAR-8 > 100 µM | OVCAR-5 > 100 µM | UACC-257 > 100 µM | SK-MEL-5 > 100 µM | KM12 > 100 µM | K562 > 100 µM | HOP-62 > 100 µM | UACC-62 > 100 µM | HOP-92 > 100 µM

N/N=C(/CC(O)(C(F)(F)F)C(F)(F)F)c1ccccc1
inactive: SF-268 > 10 µM | OVCAR-3 7.4 µM | NCI-H460 > 10 µM | SK-MEL-28 > 10 µM | ACHN > 10 µM | Malme-3M > 10 µM | T47D > 10 µM | IGROV-1 > 10 µM | HCT-116 > 10 µM | MDA-N > 10 µM | M14 > 10 µM | OVCAR-8 > 10 µM | OVCAR-5 > 10 µM | UACC-257 > 10 µM | SK-MEL-5 > 10 µM | KM12 > 10 µM | K562 > 10 µM | HOP-62 > 10 µM | UACC-62 > 10 µM | HOP-92 > 10 µM

O=C(/C=C/c1ccc(O)c(O)c1)OCc1ccccc1 [BENZYL CAFFEATE]
inactive: SF-268 10.9 µM | OVCAR-3 11 µM | NCI-H460 12.8 µM | SK-MEL-28 6.37 µM | ACHN 11.8 µM | Malme-3M 11.8 µM | T47D 12.1 µM | IGROV-1 3.38 µM | HCT-116 13.4 µM | MDA-N 4.4 µM | M14 11.1 µM | OVCAR-5 29.5 µM | UACC-257 21.2 µM | SK-MEL-5 9.73 µM | KM12 8.45 µM | K562 9.84 µM | HOP-62 25.6 µM | UACC-62 6.58 µM | HOP-92 16.2 µM
